US7482032B2, “Carotenoid preparation” (I.B.R. Israeli Biotechnology Research, Ltd., priority 1998, dated 2009)

Experiments:
[1] = UV absorbance spectra (spectrophotometric analysis); format: physicochemical; conditions: extract from Dunaliella sp.
Procedure: Absorption spectra of the phytoene and phytofluene extract was determined using Hewlett Packard 8452A Diode Array Spectrophotometer.
As expected, the main absorbance peak for β-carotene was at 450 nm. β-Carotene was reduced due to the synthesis inhibition while phytoene and phytofluene increased.

[2] = Stability under visible light (filtered sunlight, aerobic); format: physicochemical
Procedure: Stability of phytoene and phytofluene under visible light was measured under sunlight (full sun summer day in Rehovot, Israel, at noon) filtered through “hot mirror” (Andover Corporation, Salem, N.H., transmittance 400-650 nm) filter. Samples were dissolved in ethanol, exposed to light for 30-150 min and then extracted in hexane after basic hydrolysis (as in extraction method above). Phytoene, phytofluene and beta-carotene amounts were measured spectrophotometrically, and percentage lefts were calculated as in section 5 above.
Stability of phytoene and phytofluene was compared to that of beta-carotene stability (as explained in materials and methods) under visible light. The absorbance of the preparation is determined in 220-600 nm wavelength and the amount of each of the above carotenoids in each sample is calculated to determine the percent of the carotenoids measured after irradation of the extract compared to measurements prior to irradiant (see example 2 above).

[3] = system: DNA repair synthesis activity; test: Genotoxic effect: induction of DNA repair synthesis activity (ratio R); format: biochemical; conditions: R≦2 no toxic effect
Procedure: The genotoxicity is measured as the induction of DNA repair synthesis activity and is expressed by the ratio (R): while R≦2 indicate no toxic effect

[4] = Stability of phytoene and phytofluene at various incubation temperatures in oils and solvents; format: physicochemical; conditions: 4° C., 23° C., 30° C. and 60° C., hexane or oils, four months
Procedure: Stability of the carotenoids in the various temperatures was determined by long-term incubation of phytoene and phytofluene in several types of oils and solvents at 4° C., 23° C., 30° C. and 60° C. The amount of phytoene and phytofluene left was determined spectrophotometrically. The percent of phytoene and phytofluene left was calculated as follows: […]
The stability of phytoene and phytofluene under different temperature conditions (4° C., 23° C., 30° C. and 60° C.) in hexane or in other various commercially used oils was also measured.
The measurements were carried out over a period of four months.

[5] = Stability of phytoene and phytofluene under UV irradiation (aerobic); format: physicochemical
Procedure: 6. Stability of Phytoene and Phytofluene Under Aerobic Conditions in UV Lights and Various Incubation Temperatures
Stability of the carotenoids in the various temperatures was determined by long-term incubation of phytoene and phytofluene in several types of oils and solvents at 4° C., 23° C., 30° C. and 60° C. The amount of phytoene and phytofluene left was determined spectrophotometrically. The percent of phytoene and phytofluene left was calculated as follows:
[formula] Stability under UV lights (254 nm, 365 nm, 254+365 nm), for 30 mins. at 300/310 μw/cm^2 was determined. 7. Stability of Phytoene and Phytofluene Under Aerobic Conditions in Visible Light
The stability of the phytoene and phytofluene extracts obtained as explained in Example 1 above was determined by spectrophotometric analysis. Phytoene and phytofluene were dissolved in hexane or oil. The absorbance of the preparation is determined in 220-600 nm and the amount of each of the above carotenoids in each sample is calculated to determine the percent of the carotenoids measured after irradiation of the extract divided by the amount of the same carotenoid which was measured in the extract before exposing it to irradiation (see Materials and Methods 5 above). The stability of the phytoene and phytofluene was measured by the exposure of the extract both to UVA light (365 nm) and UVB light (254 nm) irradiation as well as to a combination of UVA and UVB irradiation.

[6] = 254 nm + 365 nm, 30 minutes exposure, in hexane
[7] = 254 nm + 365 nm, 30 minutes exposure, in oil
[8] = 254 nm, 30 minutes exposure, in hexane
[9] = 254 nm, 30 minutes exposure, in oil
[10] = 365 nm, 30 minutes exposure, in hexane
[11] = 365 nm, 30 minutes exposure, in oil
[12] = Darkness, 30 minutes, in hexane

main absorbance peak [1] [nm] | % left ([2]; time of exposure 0 min) [%] | % left ([2]; time of exposure 30 min) [%] | % left ([2]; time of exposure 90 min) [%] | % left ([2]; time of exposure 120 min) [%] | % left ([2]; time of exposure 150 min) [%] | PH and PF (% left) [5, 6] [%] | PH and PF (% left) [5, 7] [%] | PH and PF (% left) [5, 8] [%] | PH and PF (% left) [5, 9] [%] | PH and PF (% left) [5, 10] [%] | PH and PF (% left) [5, 11] [%] | PH and PF (% left) [5, 12] [%] | PH and PF (% left) ([5]; Darkness, 30 minutes, in oil) [%] | Compound | Genotoxicity (Ratio) ([3]; concentration 2 mM) | Genotoxicity (Ratio) ([3]; concentration 10 mM) | Stability under different temperature conditions [4]
450 | 100 | 25.00 | 11.36 | 9.47 | 5.68 |  |  |  |  |  |  |  |  | CC1=C(/C=C/C(C)=C/C=C/C(C)=C/C=C/C=C(C)/C=C/C=C(C)/C=C/C2=C(C)CCCC2(C)C)C(C)(C)CCC1 [Beta-carotene, reference compound] |  |  | 
 |  |  |  |  |  |  |  |  |  |  |  |  |  | COS(C)(=O)=O [MMS] | 2.44 | 6.26 | 
286 | 100 | 54.46 | 20.33 | 15.70 | 13.64 | 92.4 | 101 | 92.2 | 100 | 98.7 | 100 | 100 | 100 | CC(C)=CCC/C(C)=C/CC/C(C)=C/CC/C(C)=C/C=C/C=C(\C)CC/C=C(\C)CC/C=C(\C)CCC=C(C)C [Phytoene, 7,8, 11, 12, 7′, 8′, 11′, 12′-octahydro-γ,γ-carotene] |  |  | stable in the entire measured temperature range
348 | 100 | 66.13 | 50.42 | 41.33 | 33.06 | 99.0 | 98 | 92.6 | 90 | 101.5 | 88 | 100 | 100 | CC(C)=CCC/C(C)=C/CC/C(C)=C/C=C/C(C)=C/C=C/C=C(\C)CC/C=C(\C)CC/C=C(\C)CCC=C(C)C [Phytofluene, 15Z, 7,8, 11, 12, 7′, 8′-hexahydro-γ,γ-carotene] |  |  | stable in the entire measured temperature range
